The text below walks through data of ChEMBL document CHEMBL1125038, “Synthesis and antiinflammatory activity of cis- and trans-6,6a,7,8,9,10,10a,11-octahydro-11-oxodibenzo[b,e]thiepinacetic and -oxepinacetic acids” (J Med Chem, 1990).

Several values for one entry are separate records, joined by “and”; a condition that tells them apart may be missing. Identical values can stand only once.

By inhibition in vivo is commonly meant the drop in the measured response relative to a control, in per cent. As a reminder, the ED50 is the dose that gives a 50% effect, or the effect in half of the subjects. In general, LD50 refers to the dose at which mortality reaches 50%. A lower LD50 goes with greater toxicity.

Data set [1] deals with Rattus norvegicus. Briefly: Inhibition of carrageenan hind paw edema in rats after oral administration of a dose of 5 mg/kg. The class given is functional. Background: The carrageenan paw model is a standard test of acute inflammation.
Data set [2] has as its system Rattus norvegicus. The data set is described as follows: Antiinflammatory activity was determined against rat carrageenan hind paw edema, after oral administration. The class given is functional.
For data set [3], the species on record is Rattus norvegicus. The data set is described as follows: The compound was tested for gastric ulcerogenicity in rats; ca. 57. In kind it is functional, Stomach.
Data set [4] is described as follows: Safety index is the ratio of UD50 to ED50 in carrageenan hind paw edema; ca. 25. The class given is toxicity. As to conditions: read-out: Safety index.
The species entered for data set [5] is Rattus norvegicus. The data set is described as follows: Analgesic activity was determined by measuring the dose required to inhibit acetic acid induced writhing. In kind it is functional. On the technique in general: In writhing tests, fewer writhes than in controls are read as antinociception.
A short description of data set [6]: The compound was tested for acute toxicity in mice after oral administration. As to conditions: mouse, in vivo. The class given is organism-based.
The species named for data set [7] is Rattus norvegicus. Briefly: The compound was tested for gastric ulcerogenicity in rats. In kind it is functional, Stomach.
Data set [8] in a line: Safety index is the ratio of UD50 to ED50 in carrageenan hind paw edema. The class given is toxicity. To be noted: read-out: Safety index.
Data set [9] deals with Rattus norvegicus. Briefly: Antiinflammatory activity was determined against rats carrageenan hind paw edema after oral administration. The class given is functional.
Data set [10] relates to Rattus norvegicus. The data set is described as follows: Antiinflammatory activity was determined against rats carrageenan hind paw edema, after oral administration; ca. 40. The class given is functional.
A short description of data set [11]: The compound was tested for acute toxicity in mice after oral administration; ca. 200. In kind it is organism-based. To be noted: mouse, in vivo.
For data set [12], the species on record is Rattus norvegicus. Briefly: The compound was tested for gastric ulcerogenicity in rats; ca. 30. In kind it is functional, Stomach.
The nature of data set [13]: Safety index is the ratio of UD50 to ED50 in carrageenan hind paw edema; ca. 20. The class given is toxicity. As to conditions: read-out: Safety index.
For data set [14], the system named is Rattus norvegicus. The data set is described as follows: Antiinflammatory activity was determined against rat carrageenan hind paw edema after oral administration of a dose of 40 mg/kg.
The species entered for data set [15] is Rattus norvegicus. The data set is described as follows: The compound was tested for gastric ulcerogenicity in rats; ca. 8. In kind it is functional, Stomach.

Turning to `CC(C(=O)OCc1ccccc1)c1ccc2c(c1)SCC1CCCCC1C2=O` (centres undefined), in the data set on Rattus norvegicus [1], the inhibition in vivo at 5 mg/kg stood at 25.6%.

Take `CC(C(N)=O)c1ccc2c(c1)SCC1CCCCC1C2=O` (centres undefined): in the data set with Rattus norvegicus [1], the inhibition in vivo at 5 mg/kg worked out at 30.5%.

In the case of `CCCCCCOC(=O)C(C)c1ccc2c(c1)SCC1CCCCC1C2=O` (centres undefined), the inhibition in vivo at 5 mg/kg in the data set on Rattus norvegicus [1] turned out to be 28.3%.

On to `CC(C(=O)OCC(=O)c1ccccc1)c1ccc2c(c1)SCC1CCCCC1C2=O` (centres undefined), for which the inhibition in vivo at 5 mg/kg in the data set with Rattus norvegicus [1] came to 26.6%.

Consider `CC(C(=O)N(C)C)c1ccc2c(c1)SCC1CCCCC1C2=O` (centres undefined), for which the inhibition in vivo at 5 mg/kg in the data set on Rattus norvegicus [1] turned out to be 2.7%.

As to `CCCCCOC(=O)C(C)c1ccc2c(c1)SCC1CCCCC1C2=O` (centres undefined), the inhibition in vivo at 5 mg/kg with Rattus norvegicus [1] was 22.1%.

`CC(C)OC(=O)C(C)c1ccc2c(c1)SCC1CCCCC1C2=O` (centres undefined): the inhibition in vivo at 5 mg/kg in the data set with Rattus norvegicus [1] came out at 25.6%.

Turning to `CC(C(=O)OC1CCCCC1)c1ccc2c(c1)SCC1CCCCC1C2=O` (centres undefined), the inhibition in vivo at 5 mg/kg in the data set on Rattus norvegicus [1] is 15.6%.

Turning to `CCOCCOC(=O)C(C)c1ccc2c(c1)SCC1CCCCC1C2=O` (centres undefined), the inhibition in vivo at 5 mg/kg with Rattus norvegicus [1] is 34.6%.

On to `CC(C(=O)OCCOCCO)c1ccc2c(c1)SCC1CCCCC1C2=O` (centres undefined), for which the inhibition in vivo at 5 mg/kg with Rattus norvegicus [1] was found to be 28.1%.

For `CC(C)COC(=O)C(C)c1ccc2c(c1)SCC1CCCCC1C2=O` (centres undefined), in the data set on Rattus norvegicus [1], the inhibition in vivo at 5 mg/kg came to 29.3%.

Regarding `CCOC(=O)C(C)c1ccc2c(c1)SCC1CCCCC1C2=O` (centres undefined), the ED50 stood at 2.24 mg/kg with Rattus norvegicus [2] (Rattus norvegicus, po, read-out: ED50) and 0.31 mg/kg in the data set filed under Rattus norvegicus [5]. In addition, the inhibition in vivo at 5 mg/kg with Rattus norvegicus [1] was 38.3%. In the data set listed under Rattus norvegicus [3], the UD50 stood at 57 mg/kg. Besides, the selectivity ratio in [4] turned out to be 25.

For the compound `CC(C(=O)Oc1ccccc1)c1ccc2c(c1)SCC1CCCCC1C2=O` (centres undefined), the inhibition in vivo at 5 mg/kg in the data set with Rattus norvegicus [1] turned out to be 22%.

Take `CC(C(=O)NCc1ccccc1)c1ccc2c(c1)SCC1CCCCC1C2=O` (centres undefined): the inhibition in vivo at 5 mg/kg in the data set on Rattus norvegicus [1] is -5.5%.

Turning to `CC(C(=O)N1CCCCC1)c1ccc2c(c1)SCC1CCCCC1C2=O` (centres undefined), the inhibition in vivo at 5 mg/kg in the data set on Rattus norvegicus [1] was 5.3%.

As to `CC(C(=O)NCCO)c1ccc2c(c1)SCC1CCCCC1C2=O` (centres undefined), in the data set with Rattus norvegicus [1], the inhibition in vivo at 5 mg/kg came to 22.3%.

Turning to `CC(C(=O)OCc1cccnc1)c1ccc2c(c1)SCC1CCCCC1C2=O` (centres undefined), in the data set with Rattus norvegicus [1], the inhibition in vivo at 5 mg/kg is 29.9%.

As to `CC(C(=O)NO)c1ccc2c(c1)SCC1CCCCC1C2=O` (centres undefined), the inhibition in vivo at 5 mg/kg with Rattus norvegicus [1] turned out to be 29.9%.

In the case of `CCCOC(=O)C(C)c1ccc2c(c1)SCC1CCCCC1C2=O` (centres undefined), the inhibition in vivo at 5 mg/kg in the data set with Rattus norvegicus [1] came out at 25.4%.

`CC(C(=O)OC/C=C/c1ccccc1)c1ccc2c(c1)SCC1CCCCC1C2=O` (centres undefined): the inhibition in vivo at 5 mg/kg in the data set on Rattus norvegicus [1] is 20.3%.

For `CC(C(=O)OCCN1CCOCC1)c1ccc2c(c1)SCC1CCCCC1C2=O` (centres undefined), the inhibition in vivo at 5 mg/kg with Rattus norvegicus [1] is 22.2%.

`CC(C(=O)OCCc1ccccn1)c1ccc2c(c1)SCC1CCCCC1C2=O` (centres undefined): in the data set on Rattus norvegicus [1], the inhibition in vivo at 5 mg/kg was 25.5%.

Regarding `CNC(=O)C(C)c1ccc2c(c1)SCC1CCCCC1C2=O` (centres undefined), the inhibition in vivo at 5 mg/kg in the data set with Rattus norvegicus [1] is 14.6%.

As for `CC(C(=O)N1CCN(C)CC1)c1ccc2c(c1)SCC1CCCCC1C2=O` (centres undefined), the inhibition in vivo at 5 mg/kg with Rattus norvegicus [1] is 5.3%.

As for `CC(C(=O)NCC(=O)O)c1ccc2c(c1)SCC1CCCCC1C2=O` (centres undefined), the inhibition in vivo at 5 mg/kg in the data set on Rattus norvegicus [1] was determined as 29.7%.

`CC(C(=O)OCc1ccccn1)c1ccc2c(c1)SCC1CCCCC1C2=O` (centres undefined): the inhibition in vivo at 5 mg/kg with Rattus norvegicus [1] came out at 30.6%.

As for `CC(C(=O)N1CCOCC1)c1ccc2c(c1)SCC1CCCCC1C2=O` (centres undefined), the inhibition in vivo at 5 mg/kg in the data set on Rattus norvegicus [1] is 7.1%.

In the case of `CCCCOC(=O)C(C)c1ccc2c(c1)SCC1CCCCC1C2=O` (centres undefined), the inhibition in vivo at 5 mg/kg in the data set on Rattus norvegicus [1] came out at 26%.

The compound `CC(C(=O)OCCc1ccccc1)c1ccc2c(c1)SCC1CCCCC1C2=O` (centres undefined) came in with an LD50 in data set [6] of 644 mg/kg. In the data set on Rattus norvegicus [2], the median effective dose (ED50) was 3.53 mg/kg and 1.5 mg/kg. In the data set on Rattus norvegicus [1], the inhibition in vivo at 5 mg/kg turned out to be 39.1%. This compound came in with a UD50 in the data set filed under Rattus norvegicus [7] above 124 mg/kg. Also, the selectivity ratio in [8] is above 35.

`CC(C(=O)OCCCc1ccccc1)c1ccc2c(c1)SCC1CCCCC1C2=O` (centres undefined): the inhibition in vivo at 5 mg/kg in the data set on Rattus norvegicus [1] worked out at 26%.

In the case of `CCOC(=O)COC(=O)C(C)c1ccc2c(c1)SCC1CCCCC1C2=O` (centres undefined), in the data set with Rattus norvegicus [1], the inhibition in vivo at 5 mg/kg is 20.2%.

Turning to `COC(=O)C(C)c1ccc2c(c1)SCC1CCCCC1C2=O` (centres undefined), in the data set on Rattus norvegicus [1], the inhibition in vivo at 5 mg/kg was determined as 21.6%.

Turning to `C=CCOC(=O)C(C)c1ccc2c(c1)SCC1CCCCC1C2=O` (centres undefined), the inhibition in vivo at 5 mg/kg in the data set with Rattus norvegicus [1] is 33.5%.

Take `O=C(O)Cc1ccc2c(c1)C(=O)[C@H]1CCCC[C@@H]1CO2` (relative stereo): the ED50 in the data set with Rattus norvegicus [9] is above 40 mg/kg.

In turn, `O=C(O)Cc1ccc2c(c1)OC[C@H]1CCCC[C@H]1C2=O` (relative stereo) came in with an ED50 with Rattus norvegicus [9] above 40 mg/kg.

In the data set on Rattus norvegicus [9], `O=C(O)Cc1ccc2c(c1)C(=O)[C@@H]1CCCC[C@@H]1CS2` (relative stereo) had a median effective dose (ED50) above 40 mg/kg.

In the data set with Rattus norvegicus [9], `O=C(O)Cc1ccc2c(c1)SC[C@H]1CCCC[C@@H]1C2=O` (relative stereo) yielded an ED50 of 3.24 mg/kg.

`O=C(O)Cc1ccc2c(c1)C(=O)[C@@H]1CCCC[C@@H]1CO2` (relative stereo): the ED50 in the data set with Rattus norvegicus [9] was above 40 mg/kg.

In the data set on Rattus norvegicus [9], `O=C(O)Cc1ccc2c(c1)C(=O)[C@H]1CCCC[C@@H]1CS2` (relative stereo) displayed a median effective dose (ED50) above 40 mg/kg.

The compound `O=C(O)Cc1ccc2c(c1)SC[C@H]1CCCC[C@H]1C2=O` (relative stereo) gave a median effective dose (ED50) with Rattus norvegicus [9] above 40 mg/kg.

Regarding `CC(C(=O)O)c1ccc2c(c1)C(=O)[C@H]1CCCC[C@@H]1CS2` (relative stereo), the ED50 in the data set with Rattus norvegicus [10] was 40 mg/kg.

In the data set with Rattus norvegicus [9], `O=C(O)Cc1ccc2c(c1)OC[C@H]1CCCC[C@@H]1C2=O` (relative stereo) came in with an ED50 of 22.1 mg/kg.

In turn, `CC(C(=O)O)c1ccc2c(c1)OC[C@H]1CCCC[C@@H]1C2=O` (relative stereo) came in with an ED50 with Rattus norvegicus [9] of 1.52 mg/kg.

The compound `CC(C(=O)O)c1ccc2c(c1)OC[C@H]1CCCC[C@H]1C2=O` (relative stereo) showed an ED50 in the data set with Rattus norvegicus [9] above 40 mg/kg.

In turn, `CC(C(=O)O)c1ccc2c(c1)C(=O)[C@@H]1CCCC[C@@H]1CS2` (relative stereo) gave a 50% effective dose (ED50) in the data set on Rattus norvegicus [9] above 40 mg/kg.

With `CC(C(=O)O)c1ccc2c(c1)C(=O)[C@@H]1CCCC[C@@H]1CO2` (relative stereo), the ED50 in the data set with Rattus norvegicus [9] was above 40 mg/kg.

Regarding `CC(C(=O)O)c1ccc2c(c1)SC[C@H]1CCCC[C@@H]1C2=O` (relative stereo), the median lethal dose (LD50) in data set [11] came out at 200 mg/kg. The ED50 was 1.53 mg/kg in the data set with Rattus norvegicus [9] and 0.39 mg/kg in the data set listed under Rattus norvegicus [5]. For the same compound, the UD50 in the data set filed under Rattus norvegicus [12] is 30 mg/kg. The selectivity ratio in [13] came out at 20.

Consider `CC(C(=O)O)c1ccc2c(c1)C(=O)[C@H]1CCCC[C@@H]1CO2` (relative stereo), for which the ED50 in the data set on Rattus norvegicus [9] was above 40 mg/kg.

`CC(C(=O)O)c1ccc2c(c1)SC[C@H]1CCCC[C@H]1C2=O` (relative stereo) yielded a 50% effective dose (ED50) in the data set with Rattus norvegicus [9] above 40 mg/kg.

The compound `CC(C(=O)O)c1ccc2c(c1)SC[C@H]1CCCC[C@@H]1C2=O` (relative stereo; form 1) came in with a median effective dose (ED50) with Rattus norvegicus [14] of 1.89 mg/kg.

In the data set with Rattus norvegicus [14], `CC(C(=O)O)c1ccc2c(c1)SC[C@H]1CCCC[C@@H]1C2=O` (relative stereo; form 2) had a median effective dose (ED50) of 37.1 mg/kg.

In data set [6], `COc1ccc2c(c1)c(CC(=O)O)c(C)n2C(=O)c1ccc(Cl)cc1` [INDOMETHACIN] registered an LD50 of 23 mg/kg. Also, the ED50 with Rattus norvegicus [9] worked out at 3.3 mg/kg; in the data set filed under Rattus norvegicus [5], 0.44 mg/kg. In addition, the inhibition in vivo at 5 mg/kg in the data set on Rattus norvegicus [1] stood at 36.3%. This compound also came in with a UD50 in the data set filed under Rattus norvegicus [15] of 8 mg/kg. Also, in [8], the selectivity ratio was 2.4.
